From patent US11149037B2, “Pyrazole MAGL inhibitors” (H. Lundbeck A/S, priority 2017, dated 2021) come the findings set out here.

Holding throughout (format): biochemical
The target of assay [1] is FAAH (Homo sapiens (Human), UniProt O00519). In words: In vitro competitive activity-based protein profiling, human proteomes (prefrontal cortex or PC3 cell membrane fractions). The conditions noted are these: human proteome; for inhibition at 1 µM: read-out: FAAH % inh. 1 μM (human). In outline: (§1)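 Activity of MAGL and FAAH was quantified from fluorescent gel band intensities. Beforehand, inhibitors at several concentrations competed against subsequent probe labelling (FP-Rh, JW912 or HT-01) in species-matched proteomes, each step 30 min at 37° C.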
Chain of FAAH (Homo sapiens (Human), UniProt O00519) (O00519 whole entry): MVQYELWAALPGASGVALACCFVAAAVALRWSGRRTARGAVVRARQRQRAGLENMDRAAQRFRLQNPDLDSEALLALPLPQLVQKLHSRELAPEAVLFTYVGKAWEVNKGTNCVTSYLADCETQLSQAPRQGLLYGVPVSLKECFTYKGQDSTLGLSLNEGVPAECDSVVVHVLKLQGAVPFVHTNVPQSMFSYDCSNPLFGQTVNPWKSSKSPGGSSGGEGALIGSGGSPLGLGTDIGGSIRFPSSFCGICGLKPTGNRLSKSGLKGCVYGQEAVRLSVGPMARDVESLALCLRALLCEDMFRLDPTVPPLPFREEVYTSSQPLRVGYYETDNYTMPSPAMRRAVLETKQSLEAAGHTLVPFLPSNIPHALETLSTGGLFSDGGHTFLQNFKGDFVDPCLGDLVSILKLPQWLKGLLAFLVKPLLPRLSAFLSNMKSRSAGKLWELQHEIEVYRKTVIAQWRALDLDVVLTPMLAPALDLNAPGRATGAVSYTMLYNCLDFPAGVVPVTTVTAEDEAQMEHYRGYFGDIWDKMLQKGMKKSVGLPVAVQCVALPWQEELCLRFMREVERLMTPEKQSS

In assay [2] the target is MAGL (Homo sapiens (Human), UniProt Q99685). The description is as above. The conditions noted are these: human proteome; for inhibition at 1 µM: read-out: MAGL % inh. 1 μM (human); for inhibition at 10 µM: read-out: MAGL % inh. (human) @ 10 μM; for inhibition at 50 µM: read-out: MAGL % inh. (human) @ 50 μM. In outline:
as §1

The target of assay [3] is FAAH (Mus musculus (Mouse), UniProt O08914). Briefly: In vitro competitive activity-based protein profiling, mouse proteomes (brain membrane fraction or cell lysates). The conditions noted are these: mouse proteome, read-out: FAAH % inh. 1 μM (mouse). In outline: as §1
Chain of FAAH (Mus musculus (Mouse), UniProt O08914) (O08914 whole entry): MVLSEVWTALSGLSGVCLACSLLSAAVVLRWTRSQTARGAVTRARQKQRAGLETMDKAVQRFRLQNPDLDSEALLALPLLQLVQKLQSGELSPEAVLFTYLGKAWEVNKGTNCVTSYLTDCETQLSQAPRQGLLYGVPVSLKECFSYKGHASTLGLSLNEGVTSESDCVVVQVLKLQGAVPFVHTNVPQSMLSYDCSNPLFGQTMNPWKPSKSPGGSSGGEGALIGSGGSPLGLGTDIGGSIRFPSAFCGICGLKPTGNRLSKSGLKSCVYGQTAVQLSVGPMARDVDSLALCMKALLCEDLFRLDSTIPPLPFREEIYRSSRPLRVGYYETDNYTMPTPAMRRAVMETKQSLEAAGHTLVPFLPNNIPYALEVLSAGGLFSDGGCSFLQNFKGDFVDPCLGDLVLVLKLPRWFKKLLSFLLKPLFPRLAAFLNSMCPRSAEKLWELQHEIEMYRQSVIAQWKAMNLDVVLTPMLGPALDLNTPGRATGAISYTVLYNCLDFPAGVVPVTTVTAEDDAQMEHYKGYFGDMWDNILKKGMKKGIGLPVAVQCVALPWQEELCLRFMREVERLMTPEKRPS
The target of assay [4] is MAGL (Mus musculus (Mouse), UniProt O35678). Described as above. The conditions noted are these: mouse proteome, read-out: MAGL % inh. 1 μM (mouse). Put shortly:
as §1

Structures are written as SMILES. Some results are limits rather than exact numbers.

By IC50 is commonly meant the concentration needed to halve the response being measured. Low readings indicate greater potency in that assay, high ones weaker potency in that assay.

Chain of MAGL (Mus musculus (Mouse), UniProt O35678) (O35678 whole entry): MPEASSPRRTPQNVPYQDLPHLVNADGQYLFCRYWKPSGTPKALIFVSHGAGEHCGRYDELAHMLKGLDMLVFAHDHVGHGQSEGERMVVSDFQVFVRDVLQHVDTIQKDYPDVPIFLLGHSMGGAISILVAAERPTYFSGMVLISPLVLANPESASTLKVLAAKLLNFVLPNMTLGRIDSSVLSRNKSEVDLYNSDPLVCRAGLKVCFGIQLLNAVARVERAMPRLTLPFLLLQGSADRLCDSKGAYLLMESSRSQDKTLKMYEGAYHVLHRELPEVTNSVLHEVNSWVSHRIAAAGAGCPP
Chain of MAGL (Homo sapiens (Human), UniProt Q99685) (Q99685 whole entry): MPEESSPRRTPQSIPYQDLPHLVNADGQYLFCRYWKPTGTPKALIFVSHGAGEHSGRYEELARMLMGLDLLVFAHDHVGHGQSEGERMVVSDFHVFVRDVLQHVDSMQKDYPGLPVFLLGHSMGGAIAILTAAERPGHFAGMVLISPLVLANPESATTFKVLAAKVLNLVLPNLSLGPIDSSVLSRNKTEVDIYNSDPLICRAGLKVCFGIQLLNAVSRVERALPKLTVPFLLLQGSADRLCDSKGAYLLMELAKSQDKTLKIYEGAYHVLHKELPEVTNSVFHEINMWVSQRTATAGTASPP

In the case of `CS(=O)(=O)Nc1ccn(C(=O)N2CCC(N(Cc3ccc(C(F)(F)F)cc3N3CCCC3)C3CC3)CC2)n1` [Example 35, N-(1-(4-(cyclopropyl(2-(pyrrolidin-1-yl)-4-(trifluoromethyl)benzyl)amino)piperidine-1-carbonyl)-1H-pyrazol-3-yl)methanesulfonamide], the inhibition at 1 µM in assay [1] is 0 to 25%; in assay [2], > 75%; in assay [3] it was 0 to 25%; in assay [4], > 75%.

Regarding `CC(=O)Nc1ccn(C(=O)N2CCC3(CCCN3Cc3cc4cc(Cl)ccc4[nH]3)CC2)n1` [Example 38, N-(1-(1-((5-Chloro-1H-indol-2-yl)methyl)-1,8-diazaspiro[4.5]decane-8-carbonyl)-1H-pyrazol-3-yl)acetamide], the results for the IC50 in assay [1] and in assay [2] were 1 to 10 µM and < 0.1 µM, respectively. Moreover, the results for the inhibition at 1 µM in assay [3] and in assay [4] were 25 to 50% and > 75%, respectively.

For `CS(=O)(=O)Nc1ccn(C(=O)N2CC3CN(Cc4ccc(Oc5ccc(Cl)cc5)cc4)CC3C2)n1` (stereo not shown) [Example 40, N-(1-(5-(4-(4-Chlorophenoxy)benzyl)octahydropyrrolo[3,4-c]pyrrole-2-carbonyl)-1H-pyrazol-3-yl)methanesulfonamide], the inhibition at 1 µM in assay [1] is 50 to 75%; in assay [2], 25 to 50%; in assay [3] it was > 75%; in assay [4], 25 to 50%.

`CC(=O)Nc1ccn(C(=O)N2CCC3(CCCN3Cc3cc4cc(Cl)c(Cl)cc4[nH]3)CC2)n1` [Example 43, N-(1-(1-((5,6-Dichloro-1H-indol-2-yl)methyl)-1,8-diazaspiro[4.5]decane-8-carbonyl)-1H-pyrazol-3-yl)acetamide]: the inhibition at 1 µM in assay [1] is 0 to 25%; in assay [2], > 75%; in assay [3], 0 to 25%; in assay [4], > 75%. Also, the values for the IC50 in assay [1] and in assay [2] were 1 to 10 µM and < 0.1 µM, respectively.

Take `CS(=O)(=O)Nc1ccn(C(=O)N2CC3CN(Cc4cc(Cl)ccc4C(F)(F)F)CC3C2)n1` (stereo not shown) [Example 45, N-(1-(5-(5-Chloro-2-(trifluoromethyl)benzyl)octahydropyrrolo[3,4-c]pyrrole-2-carbonyl)-1H-pyrazol-3-yl)methanesulfonamide]: the inhibition at 1 µM in assay [1], in assay [3] and in assay [4] was 0 to 25% each time. In addition, the inhibition at 10 µM in assay [2] is 0 to 25%.

Take `CS(=O)(=O)Nc1ccn(C(=O)N2CCC3(CCN(Cc4cc(Cl)ccc4C(F)(F)F)C3)CC2)n1` [Example 46, N-(1-(2-(5-Chloro-2-(trifluoromethyl)benzyl)-2,8-diazaspiro[4.5]decane-8-carbonyl)-1H-pyrazol-3-yl)methanesulfonamide]: the inhibition at 1 µM in assay [1], in assay [3] and in assay [4] was 0 to 25% each time. Moreover, the inhibition at 10 µM in assay [2] lay in the range of 25 to 50%.

In the case of `CS(=O)(=O)Nc1ccn(C(=O)N2CC3CN(Cc4ccc(N5CCCC5)cc4C(F)(F)F)CC3C2)n1` (stereo not shown) [Example 47, N-(1-(5-(4-(Pyrrolidin-1-yl)-2-(trifluoromethyl)benzyl)octahydropyrrolo[3,4-c]pyrrole-2-carbonyl)-1H-pyrazol-3-yl)methanesulfonamide], the inhibition at 1 µM in assay [1], in assay [3] and in assay [4] was 0 to 25% throughout. Further, the inhibition at 50 µM in assay [2] was 25 to 50%.

As for `CS(=O)(=O)Nc1ccn(C(=O)N2CCC3(CCN(Cc4ccc(N5CCCC5)cc4C(F)(F)F)C3)CC2)n1` [Example 48, N-(1-(2-(4-(Pyrrolidin-1-yl)-2-(trifluoromethyl)benzyl)-2,8-diazaspiro[4.5]decane-8-carbonyl)-1H-pyrazol-3-yl)methanesulfonamide], the inhibition at 1 µM in assay [1], in assay [3] and in assay [4] was 0 to 25% throughout. Further, the inhibition at 50 µM in assay [2] was in the range of 25 to 50%.

Take `CC(=O)Nc1ccn(C(=O)N2CCC3(CCCN3Cc3cc4cc(C(=O)O)ccc4[nH]3)CC2)n1` [Example 49, 2-((8-(3-Acetamido-1H-pyrazole-1-carbonyl)-1,8-diazaspiro[4.5]decan-1-yl)methyl)-1H-indole-5-carboxylic acid]: the inhibition at 1 µM was 0 to 25% in assay [1], 25 to 50% in assay [2], 0 to 25% in assay [3] and 50 to 75% in assay [4].

For `CN(Cc1ccc(N2CCCC2)cc1C(F)(F)F)[C@H]1C[C@@H]2CN(C(=O)n3ccc(NS(C)(=O)=O)n3)C[C@@H]2C1` [Example 50, N-(1-((3aR,5r,6aS)-5-(Methyl(4-(pyrrolidin-1-yl)-2-(trifluoromethyl)benzyl)amino)octahydrocyclopenta[c]pyrrole-2-carbonyl)-1H-pyrazol-3-yl)methanesulfonamide], the inhibition at 1 µM is 0 to 25% in assay [1], 50 to 75% in assay [2], > 75% in assay [3] and 50 to 75% in assay [4].

As for `CN(Cc1cc(Cl)ccc1C(F)(F)F)[C@H]1C[C@@H]2CN(C(=O)n3ccc(NS(C)(=O)=O)n3)C[C@@H]2C1` [Example 51, N-(1-((3aR,5r,6aS)-5-((5-Chloro-2-(trifluoromethyl)benzyl)(methyl)amino)octahydrocyclopenta[c]pyrrole-2-carbonyl)-1H-pyrazol-3-yl)methanesulfonamide], the inhibition at 1 µM in assay [1], in assay [2], in assay [3] and in assay [4] was > 75% each time. The figures for the IC50 in assay [1] and in assay [2] were 0.1 to 1 µM and < 0.1 µM, respectively.

As to `CS(=O)(=O)Nc1ccn(C(=O)N2CCN(Cc3cc4ccc(C(F)(F)F)cc4s3)CC2)n1` [Example 52, N-(1-(4-((6-(Trifluoromethyl)benzo[b]thiophen-2-yl)methyl)piperazine-1-carbonyl)-1H-pyrazol-3-yl)methanesulfonamide], the inhibition at 1 µM in assay [1] was 0 to 25%; in assay [2] it was > 75%; in assay [3] it was 0 to 25%; in assay [4] it was > 75%. Further, the IC50 in assay [1] was 1 to 10 µM; in assay [2], < 0.1 µM.

As to `CS(=O)(=O)Nc1ccn(C(=O)N2CCC3(CCCN3Cc3cc4ccc(C(F)(F)F)cc4s3)CC2)n1` [Example 53, N-(1-(1-((6-(Trifluoromethyl)benzo[b]thiophen-2-yl)methyl)-1,8-diazaspiro[4.5]decane-8-carbonyl)-1H-pyrazol-3-yl)methanesulfonamide], the inhibition at 1 µM in assay [1], in assay [3] and in assay [4] was 0 to 25% in each case. Moreover, the inhibition at 10 µM in assay [2] is > 75%.

In the case of `CS(=O)(=O)Nc1ccn(C(=O)N2CCN(Cc3cc4ccccc4s3)CC2)n1` [Example 54, N-(1-(4-(Benzo[b]thiophen-2-ylmethyl)piperazine-1-carbonyl)-1H-pyrazol-3-yl)methanesulfonamide], the inhibition at 1 µM in assay [1] was 0 to 25%; in assay [2], > 75%; in assay [3] it was 0 to 25%; in assay [4], > 75%.

On to `CS(=O)(=O)Nc1ccn(C(=O)N2CCN(Cc3cc4ccccc4[nH]3)CC2)n1` [Example 55, N-(1-(4-((1H-Indol-2-yl)methyl)piperazine-1-carbonyl)-1H-pyrazol-3-yl)methanesulfonamide], for which the inhibition at 1 µM in assay [1] was 0 to 25%; in assay [2], > 75%; in assay [3], 0 to 25%; in assay [4], > 75%.

Turning to `CS(=O)(=O)Nc1ccn(C(=O)N2CCN(Cc3nc4ccccc4s3)CC2)n1` [Example 56, N-(1-(4-(Benzo[d]thiazol-2-ylmethyl)piperazine-1-carbonyl)-1H-pyrazol-3-yl)methanesulfonamide], the inhibition at 1 µM in assay [1] was 0 to 25%; in assay [2], > 75%; in assay [3], 0 to 25%; in assay [4], > 75%.

Regarding `Cc1c(CN2CCN(C(=O)n3ccc(NS(C)(=O)=O)n3)CC2)sc2ccccc12` [Example 57, N-(1-(4-((3-Methylbenzo[b]thiophen-2-yl)methyl)piperazine-1-carbonyl)-1H-pyrazol-3-yl)methanesulfonamide], the inhibition at 1 µM was 0 to 25% in assay [1], > 75% in assay [2], 0 to 25% in assay [3] and > 75% in assay [4].

As for `CS(=O)(=O)Nc1ccn(C(=O)N2CCC3(CCN(Cc4cc(N5CCOCC5)cc(C(F)(F)F)c4)C3)CC2)n1` [Example 59, N-(1-(2-(3-Morpholino-5-(trifluoromethyl)benzyl)-2,8-diazaspiro[4.5]decane-8-carbonyl)-1H-pyrazol-3-yl)methanesulfonamide], the inhibition at 1 µM is 0 to 25% in assay [1], > 75% in assay [2], 0 to 25% in assay [3] and > 75% in assay [4].

As for `CS(=O)(=O)Nc1ccn(C(=O)N2CCC3(CCN(Cc4ccc(C(F)(F)F)cc4N4CCC(F)CC4)CC3)C2)n1` [Example 60, N-(1-(8-(2-(4-Fluoropiperidin-1-yl)-4-(trifluoromethyl)benzyl)-2,8-diazaspiro[4.5]decane-2-carbonyl)-1H-pyrazol-3-yl)methanesulfonamide], the inhibition at 1 µM in assay [1] was 0 to 25%; in assay [2] it was > 75%; in assay [3], 0 to 25%; in assay [4] it was > 75%.
